SMILES | melting point [°C]
CC(Oc1ccc(OCc2ccccc2)cc1)C(=O)N(C)C#N (stereo unspecified) | 56 to 58
COc1ccc(CN(C)CCCOc2ccc(S(=O)(=O)c3c(C(C)C)cn4ccccc34)cc2)cc1OC | 96 to 100
COC(=O)c1cc([N+](=O)[O-])c(C=Cc2ccc(OC)cc2)c([N+](=O)[O-])c1 | 142 to 143
CCCCn1nnc2cc(C(=O)O)ccc21 | 192
NNc1cc(OC2CCCC2)c(Cl)cc1F | 77 to 79
Cc1c(C#N)ncn1-c1cccc(Cl)c1 | 117 to 118
O=c1[nH]c2nc3ccccc3n2c(=O)n1C1CCCCC1 | 335
CC(=O)OC1CSC(Oc2cncc(-c3cccnc3Cl)c2)C(OC(C)=O)C1OC(C)=O (stereo unspecified) | 162
CNC(=O)[C@H](C)C[C@H](O)[C@H](CC1CCCCC1)NC(=O)[C@H](Cc1cscn1)NC(=O)OC(C)(C)C | 158 to 160
CC(CN(C)C)Oc1ccccc1CC(=O)N1CC2C(C1)C(c1ccccc1)(c1ccccc1)CCS2=O (racemic) | 150
CCC(=O)c1ccc(=O)[nH]c1CC | 138 to 140
COc1ccc2c(c1)c(C1CCN(Cc3cccc(C(=O)O)c3)CC1)cn2CCc1ccsc1 | 217 to 218
O=[N+]([O-])c1ccc(O)c(COCCO)c1 | 132
CCCCCCc1nccc2c(CC(=O)O)cccc12 | 152
Cc1cccc(C)c1C1C(=O)CC(C)(C)CC1=O | 177 to 186
CCc1nnc2c(N(C)C)nc3ccccc3n12 | 155 to 158
NNC(=S)c1ccccc1 | 66 to 68
Cc1nc(O)c(-c2ccccc2)s1 | 208 to 211
Cc1nc2n(c(=O)c1CCN1CCC(c3n[nH]c4cc(F)ccc34)CC1)CCS2 | 208
CCCCN1CCn2c1nc(C(=O)NCc1ccc(F)cc1C(=O)NC)c(O)c2=O | 175 to 177
CCCCC1=Nc2ccccc2C(=O)C1 | 140

SMILES | melting point [°C]
CC(=O)Oc1cccc(-c2csc3nc(C45CC6CC(CC(C6)C4)C5)cn23)c1 | 199 to 201
OCCN1CCN(CC2CCn3c(nc4ccccc43)S2)CC1 (stereo unspecified) | 68 to 70
COC(=O)c1ccc(CC23CCCN2C(=O)N(c2cc(Cl)c(O)c(Cl)c2)C3=O)cc1 (stereo unspecified) | 105
Cc1cc(NC(=O)c2cc3cc(F)ccc3n2Cc2ccncc2)cnc1N(C)C | 282 to 283
CCCOc1ccc(C(=O)Nc2ccccc2NC(=O)c2ccc(OCCC)cc2)cc1 | 195
CC1=C(C(=O)O)C(c2ccccc2[N+](=O)[O-])C(C(=O)OCCC#N)=C(C)N1 (stereo unspecified) | 132 to 134
CC(NC(Nc1cccnc1)=C(C#N)S(=O)(=O)c1ccc(Cl)cc1)C(C)(C)C (stereo unspecified) | 172 to 174
COc1cc(CF)nc(N)n1 | 119 to 121
Cc1nc(Cl)c2c(n1)c(C)nn2C | 91 to 93
CC(C)CCCC(C)C1CCC2=C3C(=O)CC4C(C)(C)C(OC(=O)c5ccccc5)CCC4(C)C3CCC21C (stereo unspecified) | 189 to 190
O=C(NC1CCCCC1)N(CCCN1CCC(Cc2ccccc2)CC1)c1ccccc1 | 106 to 108
CC[Si](CC)(CC)O[C@@H](C(=O)OC)[C@@H](NC(=O)OC(C)(C)C)c1ccc(C(N)=O)cc1 | 165
Nc1c(Cl)ccc2c1C(=O)CO2 | 160
Cc1cc(C)n(O)c(=O)c1Cc1ccccc1 | 148
CC(=O)OCC1CC(=O)NN=C1c1ccc(N2CCOCC2)c(C#N)c1 (stereo unspecified) | 60 to 69
CCc1cn(C2CC(O)C(CCC(=O)Cc3c(Cl)cccc3Cl)O2)c(=O)[nH]c1=O (stereo unspecified) | 229 to 230
CCN1CCc2c(Br)ccc([N+](=O)[O-])c2C1 | 52 to 53
CCOC(=O)CC1CN=C(c2cc3c(C)ccc(N(C)S(=O)(=O)c4cccs4)c3[nH]2)S1 (stereo unspecified) | 109 to 110
N#Cc1ccc(Cn2cc(C=C3C(=O)NC(=O)NC3=O)c3ccccc32)cc1 | > 300
CCCCc1nn2cccc(C(=O)OC)c2c1Cc1ccc(Br)cc1 | 80 to 85

The next lines start with the values.

melting point [°C] | SMILES
189 to 190 | Nc1nc(-c2cccc3ccc(Br)cc23)co1
325 to 326 | Cc1nc2c3c(c(C(=O)O)cc2n1C)CCC(c1ccccc1)N3 (stereo unspecified)
138 to 142 | Fc1ccc(C(c2ccc(F)cc2)N2CCN(CC=C3CCc4ccccc43)CC2)cc1
167 to 170 | CN(C)c1ccccc1CSc1nc2ccccc2[nH]1
156 to 158 | COc1ccnc2c1c(C(C)=O)cn2S(=O)(=O)c1ccccc1
54 to 55 | COCOCc1cccc(-c2ccc(C(=O)OC)cc2)c1
104 to 106 | CCOC(=O)CCCSc1nccc(NC(=S)NCC(F)(F)F)n1
30 to 31 | CCOC(=O)c1c(C(F)F)nc(C(F)(F)F)c(C(=O)OCC)c1NC(C)(C)C
170 | CCc1noc(-c2ncc3[nH]c4cccc(Oc5ccc(Cl)cc5)c4c3c2COC)n1
135 to 137 | c1ccc(-c2ccc(CN3Cc4cccn4Cc4ccccc43)cc2)cc1
105 to 107 | COc1ccc(C(=NOCC(=O)O)c2ccc(OC)cc2)cc1
193 to 195 | COc1ccc(-c2ccc3c(c2)c2ccc(C=Cc4ccccc4)nc2n3S(=O)(=O)c2ccccc2)cc1
> 200 | Cc1cccc(C(=O)O)c1N(C)S(=O)(=O)c1ccc(OCCCCNC(=O)c2cc3ccccc3o2)cc1
200 to 202 | COC(=O)c1ccccc1S(=O)(=O)NC(=O)c1ccc2c(C)cc(C)nn12
106 | Cc1cc(-n2cncn2)c2cccc(OCc3c(Cl)ccc(S(=O)(=O)N4CCC[C@H]4C(=O)NCCN(C)C)c3Cl)c2n1
110 to 112 | CC(C)(C)OC(=O)N[C@@H](Cc1ccc(OS(=O)(=O)C(F)(F)F)cc1)C(=O)OC(c1ccccc1)c1ccccc1
143 | CCc1cc(N(C)Cc2ccc3oc(-c4ccccc4C#N)cc3c2)n2nccc2n1
> 260 | COc1cccc(OC)c1C(=O)Nc1nnc(-c2ccc(O)cc2)s1
90 to 91 | C[C@@H](NC(=O)c1cccc(-c2ccc(Cl)cc2)c1)[C@](O)(Cn1cncn1)c1ccc(F)cc1F
178 to 179 | CCCc1nc2c(N)nc3ccccc3c2n1CCCCC(=O)N1CCOCC1
152 to 160 | COC(=O)COc1cccc2c1S[C@@H](c1ccc(OC)cc1)[C@@H](O)C(=O)N2CCN(C)C (racemic)
157 to 158 | C[C@]1(CN2CCN(C3CCN(CC=Cc4ccc(OC(F)(F)F)cc4)CC3)CC2)Cn2cc([N+](=O)[O-])nc2O1
180 to 182 | O=C(Nc1cccnc1)N1CCN(c2cc(-c3ccc(F)cc3)ncn2)CC1
153 | c1coc(Cn2c(NC3CCN(CCNc4nccs4)CC3)nc3ccccc32)c1
242 | Nc1ccc(-c2noc(-c3cnn4c(C(F)F)cc(-c5ccc(C(F)(F)F)c(F)c5)nc34)n2)cn1
104 | COc1ccccc1-c1cccc(CC(NC(=O)c2c(Cl)cccc2Cl)C(=O)O)c1 (racemic)
70 to 75 | O=C(Nc1ccc(F)c([N+](=O)[O-])c1)C(F)(F)F
120 to 122 | COc1ccc(-c2cc3cc(OC)cc(C(O)C(F)(F)F)c3o2)cc1 (stereo unspecified)

melting point [°C] | SMILES
173 to 175 | O=C(O)Cc1ccc(-n2sc3ccccc3c2=O)cc1
178 to 179 | CC(C)(C)c1cc(NC(=O)Nc2ccc(Oc3ccncc3)cc2)[nH]n1
85.5 to 87.5 | Cc1ccccc1-c1cc(C(C)(C)C)c(O)c(C(C)(C)C)c1
54 to 56 | CC(C)OCCOc1c(-c2ccc(S(N)(=O)=O)cc2)cnn(-c2ccc(F)c(F)c2)c1=O
240 to 242 | Cc1nc(-c2cccnc2)sc1-c1ccnc(Nc2ccc(N3CCOCC3)cc2)n1
94 to 100 | CN(C)CCNC(=O)c1ccc(-c2nnc(CSCCOc3ccccc3)o2)cc1
161 to 164 | Nc1ccc(S(=O)c2ccc(-c3ccc(Br)cc3)cc2)cc1N (stereo unspecified)
128 to 129 | CCCCc1oc2ccccc2c1-c1ccc(-c2ccc(O)cc2)cc1
180 to 182 | COc1ccc(C(=O)C2C(=O)N(C(N)=O)c3ccc(Cl)cc32)s1 (stereo unspecified)
127 to 128 | O=C1c2ccccc2C(=O)N1CC(=O)N1c2ccccc2N(Cc2ccccc2)C(=O)CC1c1ccccc1 (stereo unspecified)
142 to 150 | NNc1ccnc2c(NC(=O)c3c(Cl)cccc3Cl)cc(Cl)cc12
170 | Cc1ccc(=NC(=O)C(F)(F)F)n(Cc2ccc(Cl)s2)c1
235 to 240 | C#CCn1c(=O)nc(-c2ccc3c(c2)OCO3)c2cc3c(cc21)OCO3
131 to 133 | Nc1ccnc(CSCCN2C(=O)c3ccccc3C2=O)n1
82 | Cc1nn(-c2c(Cl)cc(C(F)(F)F)cc2Cl)nc1Br
126 to 128 | COc1ccc2c(c1)C(=NOCCN1CCCC1)c1c-2c(N2CCNCC2)nc2ccccc12
175 to 176 | Cn1nnnc1-c1cc(-c2ccc(F)cc2)sc1-c1ccc(F)cc1
148 | c1ccc2oc(NCc3ccncc3)nc2c1
250 to 251 | Cc1ccc(N2C(=O)c3ccccc3NC2c2ccc(=O)[nH]c2)cc1C(F)(F)F (stereo unspecified)
219 to 224 | CCNC(=O)c1ccc(N2CCN(Cc3cc4c(c(OC(F)F)c3)OC(C)C(=O)N4)CC2)cc1 (stereo unspecified)
157 to 158 | CN1CCN(CCc2ccc(Nc3ncc4c(n3)-c3ccccc3C(c3ccccc3C(F)(F)F)C4)cc2)CC1 (stereo unspecified)
206 to 207 | Nc1cc(=O)n(-c2c(Cl)cc(C(F)(F)F)cc2Cl)[nH]1
179 to 180 | O=C(c1cc(C(F)(F)F)cc(C(F)(F)F)c1)N1CCOc2nccc(-c3ccccc3)c2C1
154 to 155 | Clc1ccc(N2CCN(Cc3cn4cc(Br)ccc4n3)CC2)cc1
258 to 261 | N#Cc1cccc(-c2nnc(-c3cccnc3)s2)c1
260 to 264 | Cc1cc(Cn2cncc2C)cc2c1Cc1c(-c3ccsc3)n[nH]c1-2
188 | CS(=O)(=O)CCCn1c(=NC(=O)c2cccc(Cl)c2)sc2cc(OC(F)(F)F)ccc21
